This is an account of results in paper PMC2758050 (Bioorganic & medicinal chemistry letters, 2009).

Each structure is given as a SMILES string. Like-named read-outs stand apart in the source and are kept apart here.

Assay [1] relates to hMC1R. As to conditions: cited from earlier work; for EC50: read-out: EC50 hMC1R, agonist.
For assay [2], the system named is DNA damage resulting from exposure to solar UV radiation. As to conditions: compared with α-MSH; ref 4a; cited from earlier work.
In assay [3] the target is mMC1R (Mus musculus, UniProt Q01727). Nature of the assay: Agonist activity of N-capped tripeptides on mouse MC1 receptor.
Assay [4] concerns the target mMC4R (Mus musculus, UniProt P56450). Nature of the assay: Agonist activity of N-capped tripeptides on mouse MC4 receptor.
Assay [5] concerns the target mMC5R (Mus musculus, UniProt P41149). Nature of the assay: Agonist activity of N-capped tripeptides on mouse MC5 receptor.
Assay [6] relates to hMC3R. As to conditions: ref 3b; cited from earlier work.
The test system of assay [7] is hMC4R. As to conditions: ref 3b; cited from earlier work.

Sequence of mMC1R (Q01727 whole entry): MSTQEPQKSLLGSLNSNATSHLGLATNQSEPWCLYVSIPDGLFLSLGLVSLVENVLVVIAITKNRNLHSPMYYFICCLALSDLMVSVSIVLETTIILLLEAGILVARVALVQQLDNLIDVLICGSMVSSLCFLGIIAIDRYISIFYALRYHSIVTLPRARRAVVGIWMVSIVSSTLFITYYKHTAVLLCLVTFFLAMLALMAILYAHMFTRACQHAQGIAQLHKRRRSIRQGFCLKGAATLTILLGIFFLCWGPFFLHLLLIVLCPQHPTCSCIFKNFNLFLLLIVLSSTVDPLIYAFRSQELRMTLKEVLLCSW
Sequence of mMC4R (P56450 whole entry): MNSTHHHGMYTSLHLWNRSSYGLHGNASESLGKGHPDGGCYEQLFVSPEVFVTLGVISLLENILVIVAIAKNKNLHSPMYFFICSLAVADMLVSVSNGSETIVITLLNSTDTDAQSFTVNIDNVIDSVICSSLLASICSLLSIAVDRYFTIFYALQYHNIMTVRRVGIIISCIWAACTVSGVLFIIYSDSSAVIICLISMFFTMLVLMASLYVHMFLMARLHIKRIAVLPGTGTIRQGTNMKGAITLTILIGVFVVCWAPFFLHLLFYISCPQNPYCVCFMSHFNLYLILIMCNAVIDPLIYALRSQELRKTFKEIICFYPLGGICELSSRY
Sequence of mMC5R (P41149 whole entry): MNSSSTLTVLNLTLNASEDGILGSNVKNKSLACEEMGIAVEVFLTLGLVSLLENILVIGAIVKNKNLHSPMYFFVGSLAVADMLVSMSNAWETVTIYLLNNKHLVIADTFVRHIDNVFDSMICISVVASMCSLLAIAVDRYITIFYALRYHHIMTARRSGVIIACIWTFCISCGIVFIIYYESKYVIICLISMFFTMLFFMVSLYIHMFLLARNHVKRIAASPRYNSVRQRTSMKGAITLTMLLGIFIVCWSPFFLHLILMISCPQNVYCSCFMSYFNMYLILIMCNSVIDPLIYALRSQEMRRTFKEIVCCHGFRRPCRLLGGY

Regarding `N=C(N)NCCC[C@H](NC(=O)[C@@H](Cc1ccccc1)NC(=O)[C@H](Cc1c[nH]cn1)NC(=O)CCCc1ccccc1)C(=O)N[C@@H](Cc1c[nH]c2ccccc12)C(N)=O` [Compound 1, Ph(CH2)3CO-His-D-Phe-Arg-Trp-NH2], the EC50 – broadly, the concentration needed to bring the measured effect to its halfway point – in assay [1] (ref 3a) was 0.01 nM; in assay [3], 1.6 ± 0.29 nM; in assay [4], 0.54 ± 0.19 nM; in assay [5], 0.33 ± 0.14 nM. In addition, the “potency in repairing DNA damage resulting from solar UV radiation” value in assay [2] is given as “more potent than α-MSH”.

As for `N=C(N)NCCC[C@H](NC(=O)[C@@H](Cc1ccccc1)NC(=O)[C@H](Cc1c[nH]cn1)NC(=O)CCCc1ccccc1)C(N)=O` [Compound 2, Ph(CH2)3CO-His-D-Phe-Arg-NH2], in assay [1] (ref 3b), the EC50 was 5 nM and the “type of agonism at hMC1R” value was “full hMC1 agonist”. For the same compound, the “type of agonism at hMC3R” value in assay [6] was “weak partial agonism”. Also, the “type of agonism at hMC4R” value in assay [7] is reported as “weak partial agonism”. Further, the “loss in potency compared to 1 at mMC1R” value in assay [3] (vs tetrapeptide 1) is given as 590 fold.
